“And” between values parts separate entries of the source, which are not always exact repeats. Identical values can stand only once. Like-named read-outs stand apart in the source and are kept apart here.
Legend:
Drosophila OR13a = target: T1, Drosophila OR13a (Drosophila melanogaster, UniProt Q9VXL0); assay: Calcium ion fluorescence (GCaMP6) assay, OR13a stable HEK293 cell line; format: cell-based; settings: for DF norm AVERAGE OR13a: normalized fluorescence change, values below 0.05 threshold given as 0
T1 construct: expressed in transfected cells
T1 sequence (Q9VXL0 1-418): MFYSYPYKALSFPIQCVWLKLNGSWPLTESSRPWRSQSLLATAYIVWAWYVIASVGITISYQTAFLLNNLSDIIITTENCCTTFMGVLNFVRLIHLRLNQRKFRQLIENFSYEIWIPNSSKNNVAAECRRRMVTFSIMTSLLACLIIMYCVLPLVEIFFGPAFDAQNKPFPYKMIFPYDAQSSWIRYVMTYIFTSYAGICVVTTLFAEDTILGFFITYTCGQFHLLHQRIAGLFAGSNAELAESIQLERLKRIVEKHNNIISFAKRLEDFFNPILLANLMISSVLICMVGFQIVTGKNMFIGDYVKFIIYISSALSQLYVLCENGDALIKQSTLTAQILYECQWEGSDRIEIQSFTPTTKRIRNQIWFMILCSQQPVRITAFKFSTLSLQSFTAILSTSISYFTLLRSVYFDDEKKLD
T1 sequence (Q9VNB5 1-486 partner): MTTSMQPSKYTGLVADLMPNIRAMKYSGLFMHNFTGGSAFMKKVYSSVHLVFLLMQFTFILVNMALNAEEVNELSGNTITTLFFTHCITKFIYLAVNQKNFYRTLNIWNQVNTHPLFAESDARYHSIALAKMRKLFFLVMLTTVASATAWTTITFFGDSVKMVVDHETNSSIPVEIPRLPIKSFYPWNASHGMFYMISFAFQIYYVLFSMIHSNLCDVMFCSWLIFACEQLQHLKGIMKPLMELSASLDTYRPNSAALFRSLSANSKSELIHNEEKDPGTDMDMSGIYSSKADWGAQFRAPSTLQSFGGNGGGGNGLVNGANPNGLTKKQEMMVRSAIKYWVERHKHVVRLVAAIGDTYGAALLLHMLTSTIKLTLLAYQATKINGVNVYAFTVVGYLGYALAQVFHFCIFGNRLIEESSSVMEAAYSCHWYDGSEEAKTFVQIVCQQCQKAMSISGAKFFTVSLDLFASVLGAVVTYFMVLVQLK
Method: (§1) These VUAA1 normalized ∆F values were used to compare the different receptors and ligands.
(§2) The concentration-dependent effect of the reference ligands on their cognate cell lines was examined in more detail. Twelve different ligand concentrations were measured on each cell line in an overall 0.01 μM to 100 μM concentration range with 5 repetitions with three technical replicates each time.
(§3) Twelve thousand to 18,000 cells were plated into each well of a black wall, transparent bottom 384-well microplate (Greiner) 48 h or 72 h before the measurements and were simultaneously treated with 1 μg/mL doxycycline. […] The plate has 24 columns, thus we could record responses in up to eight different cell lines in each plate. On the day of the experiment, the growth medium was replaced with 20 µL assay buffer/well (140 mM NaCl, 5 mM KCl, 2 mM CaCl2, 1 mM MgCl2, 5 mM HEPES-Na, 20 mM glucose, pH 7.3, 340 mOsm). […] Baseline fluorescence (F0) was recorded for 5 s, after which 7 µL VOC buffer (140 mM NaCl, 5 mM KCl, 2 mM CaCl2, 1 mM MgCl2, 5 mM HEPES-Na, 31 mM glucose, 0.1% DMSO, pH 7.3, 340 mOsm) was injected into each well in one row and the fluorescence response was recorded for an additional 30 s, at a rate of one read/sec. VOC solutions (VOC buffer with 4× concentration of the final measured VOC concentration, 9 µL/well was injected) were measured on the same wells in a second round with the same protocol. Each individual concentration of a specific VOC sample was recorded in three wells for the same cell line on the same microplate. The raw data were exported in xls file format, F0 and FMAX values, and the fluorescence intensity changes (∆F) were calculated in Excel (Microsoft) (Supplementary file Data summary.xlsx) using the following equation: ΔF=FMAX-F0/F0 (see also Fig. 1C). On each plate, we recorded the response of each cell line to 50 µM VUAA1. The average of these ∆F values of each cell line were used to calculate the VUAA1-normalized values for the rest of the plate, by dividing VOC response ∆F values by the average VUAA1 response ∆F value of the corresponding OR cell line. Each VOC-OR combination was measured three times as technical replicates. […] The average of these replicates were used as one ∆F and VUAA1-normalized ∆F in the following analysis.
(§4) In the next rows we tested the reference VOCs (or other VOCs known to activate the corresponding cell lines), in order to test if all cell lines are responsive. The remaining rows were used to test VOCs with unknown effect.
(§5) The recorded FMAX, F0, ∆F, VUAA1-normalized ∆F values, as well as the OR name, the name of the tested sample, and the final concentration for each well were copied into supplementary file Data summary.xlsx, that was used to summarize all the plates recorded. Here, the averages of the measurements were calculated for each receptor-VOC-concentration combination.

Drosophila OR98a = target: T2, Drosophila OR98a (Drosophila melanogaster, UniProt Q9VAZ3); assay: Calcium ion fluorescence (GCaMP6) assay, OR98a stable HEK293 cell line; format: cell-based; settings: for DF norm AVERAGE OR98a: normalized fluorescence change, values below 0.05 threshold given as 0
T2 construct: expressed in transfected cells
T2 sequence (Q9VAZ3 1-397): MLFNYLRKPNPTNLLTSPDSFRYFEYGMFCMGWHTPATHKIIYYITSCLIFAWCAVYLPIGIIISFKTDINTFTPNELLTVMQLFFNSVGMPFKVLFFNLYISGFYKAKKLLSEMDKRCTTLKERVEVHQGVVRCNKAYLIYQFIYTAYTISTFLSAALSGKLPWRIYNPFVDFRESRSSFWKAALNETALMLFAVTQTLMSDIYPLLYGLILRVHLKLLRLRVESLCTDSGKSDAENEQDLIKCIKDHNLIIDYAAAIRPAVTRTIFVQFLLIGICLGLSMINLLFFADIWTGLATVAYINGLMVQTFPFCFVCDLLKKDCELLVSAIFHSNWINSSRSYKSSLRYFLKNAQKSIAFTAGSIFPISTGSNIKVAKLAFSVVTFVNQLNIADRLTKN
T2 sequence (Q9VNB5 1-486 partner): T1 sequence (Q9VNB5 1-486 partner)
Method: as §1, §2, §3, §4, §5

[1] = HEK293, read-out: Average response
[2] = HEK293, read-out: OR98a Average response (VUAA1-normalized)
[3] = HEK293, read-out: OR98a response (VUAA1-normalized response)

## C=CC(O)CCCCC (centres unmarked) [1-octen-3-ol]
Drosophila OR13a; AVERAGE EC50, the 12th table, corresponds to average EC50, given with 95% confidence interval
  EC50: 1440 nM
Drosophila OR13a; EC50, AVERAGE of replicate fits, the 12th table, N 5
  EC50: 1440 nM
Drosophila OR13a; EC50, AVERAGE of replicate fits, the 12th table, arithmetic average, N 5
  EC50: 1630 nM
Drosophila OR13a; EC50, OR13a cell line, fitted Hill equation, Hill coefficient constrained to 1, maximal response max 1
  EC50: 1440 nM
Drosophila OR13a; EC50, fitted average curve, the 12th table, fit to the average curve, n 0.854956
  EC50: 1410 nM
Drosophila OR13a; EC50, fitted parameter per biological replicate, the 12th table, OR13a D-R 1-octen-3-ol, individual replicate fits, MIN 0, n 1
  EC50: 2370 nM and 2300 nM and 753 nM and 1970 nM and 761 nM
Drosophila OR13a; EC50, fitted parameter per biological replicate, the 12th table, individual replicate fits
  EC50: 2370 nM and 2300 nM and 753 nM and 1970 nM and 761 nM
Drosophila OR13a; HEK293, read-out: OR13a Average response (VUAA1-normalized), 1 μM VOC, 50 μM VUAA1 = 1, responses not exceeding 0.05 considered 0
  activation at 1 µM: 31%
Drosophila OR13a; HEK293, read-out: OR13a Average response (VUAA1-normalized), 10 μM VOC, 50 μM VUAA1 = 1, responses not exceeding 0.05 considered 0
  activation at 10 µM: 41%
Drosophila OR13a; HEK293, read-out: OR13a Average response (VUAA1-normalized), 100 μM VOC, 50 μM VUAA1 = 1, responses not exceeding 0.05 considered 0
  activation at 100 µM: 38%
Drosophila OR13a; HEK293, read-out: OR13a response (VUAA1-normalized response), VOC concentration 1 μM
  activation at 1 µM: 31%
Drosophila OR13a; HEK293, read-out: OR13a response (VUAA1-normalized response), VOC concentration 10 μM
  activation at 10 µM: 41%
Drosophila OR13a; HEK293, read-out: OR13a response (VUAA1-normalized response), VOC concentration 100 μM
  activation at 100 µM: 38%
Drosophila OR13a; HEK293, read-out: VUAA1 normalized MAX response
  Emax: 46%
Drosophila OR13a; concentration 1
  DF norm AVERAGE OR13a: 0.3125
Drosophila OR13a; concentration 10
  DF norm AVERAGE OR13a: 0.4133
Drosophila OR13a; concentration 100
  DF norm AVERAGE OR13a: 0.3797
Drosophila OR13a; the 12th table, VOC concentration 0.15
  dose-response, response per biological replicate: 0 (2×) and 0.1313
Drosophila OR13a; the 12th table, VOC concentration 0.15, N 3
  dose-response, AVERAGE response: 0.04376
Drosophila OR13a; the 12th table, VOC concentration 0.3
  dose-response, response per biological replicate: 0 (3×) and 0.1249 and 0.1272
Drosophila OR13a; the 12th table, VOC concentration 0.3, N 5
  dose-response, AVERAGE response: 0.0504
Drosophila OR13a; the 12th table, VOC concentration 0.6
  dose-response, response per biological replicate: 0 (2×) and 0.1801 and 0.08156 and 0.213
Drosophila OR13a; the 12th table, VOC concentration 0.6, N 5
  dose-response, AVERAGE response: 0.09494
Drosophila OR13a; the 12th table, VOC concentration 1.25
  dose-response, response per biological replicate: 0.2071 and 0.2793 and 0.1886 and 0.3516
Drosophila OR13a; the 12th table, VOC concentration 1.25, N 4
  dose-response, AVERAGE response: 0.2566
Drosophila OR13a; the 12th table, VOC concentration 2.5
  dose-response, response per biological replicate: 0.2646 and 0.1888 and 0.4175 and 0.197 and 0.3823
Drosophila OR13a; the 12th table, VOC concentration 2.5, N 5
  dose-response, AVERAGE response: 0.2901
Drosophila OR13a; the 12th table, VOC concentration 5
  dose-response, response per biological replicate: 0.42 and 0.3195 and 0.4159 and 0.2978 and 0.4731
Drosophila OR13a; the 12th table, VOC concentration 5, N 5
  dose-response, AVERAGE response: 0.3853
Drosophila OR13a; the 12th table, VOC concentration 10
  dose-response, response per biological replicate: 0.4322 and 0.4316 and 0.4215 and 0.2626 and 0.4446
Drosophila OR13a; the 12th table, VOC concentration 10, N 5
  dose-response, AVERAGE response: 0.3985
Drosophila OR13a; the 12th table, VOC concentration 20
  dose-response, response per biological replicate: 0.4616 and 0.4143 and 0.5545 and 0.335 and 0.5659
Drosophila OR13a; the 12th table, VOC concentration 20, N 5
  dose-response, AVERAGE response: 0.4662
Drosophila OR13a; the 12th table, VOC concentration 40
  dose-response, response per biological replicate: 0.4507 and 0.4868 and 0.5125 and 0.286 and 0.5426
Drosophila OR13a; the 12th table, VOC concentration 40, N 5
  dose-response, AVERAGE response: 0.4557
Drosophila OR13a; the 12th table, VOC concentration 60
  dose-response, response per biological replicate: 0.3021 and 0.4978 and 0.4725 and 0.5843
Drosophila OR13a; the 12th table, VOC concentration 60, N 4
  dose-response, AVERAGE response: 0.4642
Drosophila OR13a; the 12th table, VOC concentration 80
  dose-response, response per biological replicate: 0.4797 and 0.3236 and 0.407 and 0.4017 and 0.4897
Drosophila OR13a; the 12th table, VOC concentration 80, N 5
  dose-response, AVERAGE response: 0.4203
Drosophila OR13a; the 12th table, VOC concentration 100
  dose-response, response per biological replicate: 0.3778 and 0.3442 and 0.2898 and 0.4501
Drosophila OR13a; the 12th table, VOC concentration 100, N 4
  dose-response, AVERAGE response: 0.3654
Drosophila OR13a; the 12th table, average of replicate fits, N 5
  AVERAGE MAX: 0.459
Drosophila OR13a; the 12th table, fit to the average curve, n 0.854956
  MAX, fitted average curve: 0.4618
Drosophila OR13a; the 12th table, individual replicate fits
  MAX, fitted parameter per biological replicate: 0.5125 and 0.4135 and 0.4717 and 0.37 and 0.5273
Drosophila OR98a; [1]
  activation at 1 µM: 0%
  activation at 10 µM: 1.13%
  activation at 100 µM: 21%
Drosophila OR98a; [2]
  activation at 1 µM: 0%
  activation at 10 µM: 1%
  activation at 100 µM: 21%
Drosophila OR98a; [3]
  activation at 1 µM: 0%
  activation at 10 µM: 0%
  activation at 100 µM: 21%
Drosophila OR98a; concentration 1
  DF norm AVERAGE OR98a: 0
Drosophila OR98a; concentration 10
  DF norm AVERAGE OR98a: 0
Drosophila OR98a; concentration 100
  DF norm AVERAGE OR98a: 0.2102
